Assay results from patent US8163737B2 (Vertex Pharmaceuticals Incorporated, priority 2006, dated 2012).

Each molecule was assayed against endogenous CGRP receptor (Homo sapiens, UniProt O60894+Q16602) (assay: CGRP functional antagonism using SK-N-MC-BLA (4C10), β-lactamase transcriptional reporter assay). Settings: SK-N-MC (4C10) cells, inhibition of β-lactamase expression in the presence of 200 pM CGRP.
Type: cell-based
Source text: Measuring CGRP Functional Antagonism Using SK-N-MC-BLA (4C10):
CGRP functional antagonism was characterized in a cell based transcriptional assay using a recombinant SK-N-MC line. To introduce the transcriptional reporter system, SK-N-MC cell line was transduced with a retroviral vector containing β-lactamase gene downstream of cAMP responsive promoter. The expression of β-lactamase is triggered by cAMP increase that is a downstream event of activation of endogenous CGRP receptor. Single clones were separated using Fluorescent Activated Cell Sorting (FACS) based on CGRP induced β-lactamase activity. β-lactamase activity was measured using a fluorescence energy transfer (FRET) dye, CCF4. […] To evaluate functional antagonist activity of compounds in SK-N-MC (4C10) line, compounds were evaluated for their inhibition of β-lactamase expression in the presence of CGRP.
SK-N-MC (4C10) was cultured in Minimal Essential Media (MEM) (Invitrogen) supplemented with 1 mM non-essential amino acids solution (Invitrogen), 100 units/ml Penicillin-Streptomycin (Invitrogen), 1 mM sodium pyruvate (Invitrogen) and 10% fetal bovine serum. For the β-lactamase assay, low serum, 1% FBS in MEM was used. 30,000 cells were plated into each wells of poly-D-lysine coated 384-well plate (Becton Dickinson) a day prior to the assay. SK-N-MC (4C10) was preincubated with compounds for 30 min before the addition of 200 pM CGRP. The assay was incubated for 3 hours at 37° C. to allow β-lactamase expression. CCF4 dye was added and incubated for 2 hours at room temperature. […] Curve fitting and IC50 calculation were carried about using MOD3.

endogenous CGRP receptor, sequence (Q16602 23-461): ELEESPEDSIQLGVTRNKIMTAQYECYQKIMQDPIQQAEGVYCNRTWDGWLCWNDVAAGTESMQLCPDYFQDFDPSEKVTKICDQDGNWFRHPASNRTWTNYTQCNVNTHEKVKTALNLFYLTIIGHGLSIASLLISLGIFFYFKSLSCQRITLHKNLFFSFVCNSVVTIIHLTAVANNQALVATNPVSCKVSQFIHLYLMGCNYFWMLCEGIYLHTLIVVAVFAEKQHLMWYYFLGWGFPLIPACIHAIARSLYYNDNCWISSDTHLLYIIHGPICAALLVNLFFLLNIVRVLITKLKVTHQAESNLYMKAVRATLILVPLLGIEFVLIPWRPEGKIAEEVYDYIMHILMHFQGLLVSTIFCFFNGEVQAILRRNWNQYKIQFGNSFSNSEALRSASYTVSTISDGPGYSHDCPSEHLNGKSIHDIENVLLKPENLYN
endogenous CGRP receptor, sequence (O60894 27-148): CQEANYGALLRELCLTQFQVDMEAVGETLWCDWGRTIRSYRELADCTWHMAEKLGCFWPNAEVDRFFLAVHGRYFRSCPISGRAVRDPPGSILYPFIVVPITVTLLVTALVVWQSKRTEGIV

Row | Structure (SMILES) | IC50 [µM]
1 | CC(C)(C)CCN1C(=O)C(CC(=O)N2CCC(N3CCc4ccccc4NC3=O)CC2)SC12c1ccccc1-c1ccccc12 (stereo not shown) [Compound 310] | < 1
2 | CC(C)(C)CCN1C(=O)C(CC(=O)N2CCC(N3Cc4ccccc4NC3=O)CC2)SC1(C)c1ccccc1 (stereo not shown) [Compound 312] | < 1
3 | CN1CCN(c2cc(F)ccc2C2SC(CC(=O)N3CCC(N4Cc5ccccc5NC4=O)CC3)C(=O)N2CCC(C)(C)C)CC1 (stereo not shown) [Compound 360] | < 1
4 | CN1CCN(c2cccc(C3SC(CC(=O)N4CCC(N5CCc6ccccc6NC5=O)CC4)C(=O)N3CCC(C)(C)C)c2)CC1 (stereo not shown) [Compound 412] | < 1
5 | O=C(CC1SC(C2CCCCC2)N(c2ccc(N3CCOCC3)cc2)C1=O)N1CCC(N2CCc3ccccc3NC2=O)CC1 (stereo not shown) [Compound 421] | < 1
6 | CC(C)CCN1C(=O)C(CC(=O)N2CCC(n3c(=O)[nH]c4ccccc43)CC2)SC1c1ccccc1N(C)C (stereo not shown) [Compound 293] | < 1
7 | COc1ccc(C2SC(CC(=O)N3CCC(N4Cc5ccccc5NC4=O)CC3)C(=O)N2CCC(C)C)cc1OC (stereo not shown) [Compound 228] | 1 to 5
8 | CC(=O)N1CCC2(CCN(C(=O)CC3SC(c4ccccc4)N(CCC(C)C)C3=O)CC2)c2ccccc21 (stereo not shown) [Compound 157] | > 5
9 | Cc1ccc(C2SC(CC(=O)N3CCC(N4CCc5ccccc5NC4=O)CC3)C(=O)N2CCC(C)C)c(C)c1 (stereo not shown) [Compound 73] | < 1
10 | COc1ccc(C2SC(CC(=O)N3CCC(N4Cc5ccccc5NC4=O)CC3)C(=O)N2CCC(C)C)cc1 (stereo not shown) [Compound 272] | 1 to 5
11 | COC(=O)[C@H](CC(C)C)N1C(=O)C(CC(=O)N2CCC(N3Cc4ccccc4NC3=O)CC2)SC1c1ccccc1 (stereo partly shown) [Compound 205] | 1 to 5
12 | CN(C)[C@H]1CCN(c2ccccc2C2SC(CC(=O)N3CCC(n4c(=O)[nH]c5ncccc54)CC3)C(=O)N2CCC(C)(C)C)C1 (stereo partly shown) [Compound 404] | 1 to 5
13 | O=C(CC1SC(c2ccccc2)N(CC(F)(F)C(F)(F)F)C1=O)N1CCC(N2CCc3ccccc3NC2=O)CC1 (stereo not shown) [Compound 233] | < 1
14 | CC(=O)Nc1ccc(C2SC(CC(=O)N3CCC(N4Cc5ccccc5NC4=O)CC3)C(=O)N2CCC(C)C)cc1 (stereo not shown) [Compound 213] | 1 to 5
15 | CN1CCN(c2ccccc2C2SC(CC(=O)N3CCC(N4CCc5ccccc5NC4=O)CC3)C(=O)N2CC(C)(C)C)CC1 (stereo not shown) [Compound 410] | < 1
16 | CN1CCN(c2cccc(C3SC(CC(=O)N4CCC(n5c(=O)[nH]c6ncccc65)CC4)C(=O)N3CCC(C)(C)C)c2)CC1 (stereo not shown) [Compound 413] | < 1
17 | CC(C)CCN1C(=O)C(CC(=O)N2CCC(N3Cc4ccccc4NC3=O)CC2)SC12CCCCCC2 (stereo not shown) [Compound 32] | < 1
18 | CCN1C(=O)C(CC(=O)N2CCC(N3Cc4ccccc4NC3=O)CC2)SC1c1ccccc1 (stereo not shown) [Compound 177] | 1 to 5
19 | CC(C)(C)CCN1C(=O)C(CC(=O)N2CCC(N3CCc4ccccc4NC3=O)CC2)SC12CCc1ccccc12 (stereo not shown) [Compound 318] | < 1
20 | CC(C)CC(CO)N1C(=O)C(CC(=O)N2CCC(N3CCc4ccccc4NC3=O)CC2)SC1c1ccccc1 (stereo not shown) [Compound 214] | 1 to 5
21 | CCCN1C(=O)[C@H](CC(=O)N2CCC(N3CCc4ccccc4NC3=O)CC2)SC1c1cccc(F)c1N1CCN(C(C)(C)C)CC1 (stereo partly shown) [Compound 536] | < 1
22 | O=C(CC1SC(c2c(F)cccc2F)N(CC2CCCCC2)C1=O)N1CCC(N2Cc3ccccc3NC2=O)CC1 (stereo not shown) [Compound 210] | < 1
23 | CN1CCN(c2cc(F)ccc2C2SC(CC(=O)N3CCC(N4CCc5ccccc5NC4=O)CC3)C(=O)N2CCC(C)(C)C)CC1 (stereo not shown) [Compound 361] | 1 to 5
24 | CC(C)(C)CCN1C(=O)C(CC(=O)N2CCC(N3Cc4ccccc4NC3=O)CC2)SC12CCCCCC2 (stereo not shown) [Compound 154] | < 1
25 | O=C(CC1SC(c2ccccc2)N(CCc2ccccc2)C1=O)N1CCC(N2CCc3ccccc3NC2=O)CC1 (stereo not shown) [Compound 231] | < 1

Row | Structure (SMILES) | IC50 [µM]
26 | COC(=O)[C@@H](CC(C)C)N1C(=O)C(CC(=O)N2CCC(N3Cc4ccccc4NC3=O)CC2)SC1c1ccccc1 (stereo partly shown) [Compound 178] | 1 to 5
27 | CC(=O)Nc1ccc(C)cc1C1(O)CCN(C(=O)CC2SC(c3ccccc3)N(CCC(C)C)C2=O)CC1 (stereo not shown) [Compound 143] | > 5
28 | CN1CCN(c2ccccc2[C@@H]2SC(CC(=O)N3CCC(n4c(=O)[nH]c5ccccc54)CC3)C(=O)N2CCC(C)(C)C)CC1 (stereo partly shown) [Compound 161] | < 1
29 | CC(=O)C1(c2ccccc2)CCN(C(=O)CC2SC(c3ccccc3)N(CCC(C)C)C2=O)CC1 (stereo not shown) [Compound 141] | > 5
30 | CCCC1SC(CC(=O)N2CCC(N3Cc4ccccc4NC3=O)CC2)C(=O)N1CCC(C)C (stereo not shown) [Compound 192] | < 1
31 | CC(C)CCN1C(=O)C(CC(=O)N2CCC(N3Cc4ccccc4NC3=O)CC2)SC1CCc1ccccc1 (stereo not shown) [Compound 6] | < 1
32 | CN(C)CCCN(C)c1ccccc1C1SC(CC(=O)N2CCC(n3c(=O)[nH]c4ncccc43)CC2)C(=O)N1CCC(C)(C)C (stereo not shown) [Compound 382] | < 1
33 | O=C(CC1SC(c2ccccc2F)N(CC2CCCCC2)C1=O)N1CCC(N2CCc3ccccc3NC2=O)CC1 (stereo not shown) [Compound 164] | 1 to 5
34 | CC(C)CCN1C(=O)C(CC(=O)N2CCC(n3c(=O)[nH]c4ccccc43)CC2)SC1c1ccccc1-n1cccn1 (stereo not shown) [Compound 291] | < 1
35 | CC(C)CCN1C(=O)C(CC(=O)N2CCC3(CCc4ccccc43)CC2)SC1c1ccccc1 (stereo not shown) [Compound 167] | > 5
36 | O=C(CC1SC(c2ccccc2F)N(CC2CCCCC2)C1=O)N1CCC(N2Cc3ccccc3NC2=O)CC1 (stereo not shown) [Compound 126] | < 1
37 | CC(C)(C)CCN1C(=O)C(CC(=O)N2CCC(N3Cc4ccccc4NC3=O)CC2)SC1c1cccc2cc[nH]c12 (stereo not shown) [Compound 94] | > 5
38 | CC(C)N1CCN(c2c(F)cccc2[C@@H]2S[C@@H](CC(=O)N3CCC(N4CCc5ccccc5NC4=O)CC3)C(=O)N2CCC(C)(C)C)CC1 [Compound 395] | > 5
39 | CCN(CC)CCN1C(=O)C(CC(=O)N2CCC(N3Cc4ccccc4NC3=O)CC2)SC1c1ccccc1 (stereo not shown) [Compound 82] | 1 to 5
40 | CCCCCCCC1SC(CC(=O)N2CCC(N3Cc4ccccc4NC3=O)CC2)C(=O)N1CCC(C)C (stereo not shown) [Compound 71] | > 5
41 | CCC(CC)C1SC(CC(=O)N2CCC(N3CCc4ccccc4NC3=O)CC2)C(=O)N1CCC(C)C (stereo not shown) [Compound 207] | < 1
42 | CC(C)CCN1C(=O)C(CC(=O)N2CCC(N3Cc4ccccc4NC3=O)CC2)SC1C1CCCCC1 (stereo not shown) [Compound 95] | < 1
43 | COc1ccc(F)cc1C1CCN(C(=O)CC2SC(c3ccccc3)N(CCC(C)C)C2=O)CC1 (stereo not shown) [Compound 281] | > 5
44 | CC(C)CCN1C(=O)C(CC(=O)N2CCC(N3Cc4ccccc4NC3=O)CC2)SC12CCC2 (stereo not shown) [Compound 275] | > 5
45 | CC(C)(C)CCN1C(=O)C(CC(=O)N2CCC(n3c(=O)[nH]c4ncccc43)CC2)SC1c1ccccc1N1CCC(N2CCCCC2)CC1 (stereo not shown) [Compound 387] | < 1
46 | CC(C)CCN1C(=O)C(CC(=O)N2CCC(n3c(=O)[nH]c4ncccc43)CC2)SC1c1ccccc1N1CCN(C)CC1 (stereo not shown) [Compound 59] | < 1
47 | CCN1C(=O)C(CC(=O)N2CCC(N3CCc4ccccc4NC3=O)CC2)SC1c1ccccc1 (stereo not shown) [Compound 284] | 1 to 5
48 | CC(C)(C)CCN1C(=O)C(CC(=O)N2CCC(N3CCc4ccccc4NC3=O)CC2)SC1c1ccccc1N1CCCCC1 (stereo not shown) [Compound 7] | < 1
49 | C=CCN1C(=O)C(CC(=O)N2CCC(N3Cc4ccccc4NC3=O)CC2)SC1c1ccccc1 (stereo not shown) [Compound 254] | 1 to 5
